Laboratory results from US8163921B2, “Hepatitis C virus inhibitors” (Bristol-Myers Squibb Company, priority 2008, dated 2012).

Key:
[1] = target: T1, HCV NS3/4A protease complex, J4L6S strain (Hepatitis C virus genotype 1b, UniProt O92972, C1454S/C1711G); test: FRET peptide assay to monitor HCV NS3/4A proteolytic activity (J4L6S strain); format: biochemical, HCV genotype 1b; settings: published J4L6S strain
T1 construct: DNA encoding the recombinant HCV NS3/4A protease complex (amino acids 1027 to 1711) for these strains; inferred from Ni-NTA purification and the pET21b vector; made in house; host or cells: Escherichia coli BL21 (DE3)
From the text: HCV NS3 protease complexes, derived from the BMS strain, H77 strain or J4L6S strain, were generated, as described below. These purified recombinant proteins were generated for use in a homogeneous assay (see below) to provide an indication of how effective compounds of the present disclosure would be in inhibiting HCV NS3 proteolytic activity.
Serum from an HCV-infected patient was obtained from Dr. T. Wright, San Francisco Hospital. An engineered full-length cDNA (compliment deoxyribonucleic acid) template of the HCV genome (BMS strain) was constructed from DNA fragments obtained by reverse transcription-PCR (RT-PCR) of serum RNA (ribonucleic acid) and using primers selected on the basis of homology between other genotype 1a strains. From the determination of the entire genome sequence, a genotype 1a was assigned to the HCV isolate according to the classification of Simmonds et al. (See P Simmonds, K A Rose, S Graham, S W Chan, F McOmish, B C Dow, E A Follett, P L Yap and H Marsden, J. Clin. Microbiol., 31(6), 1493-1503 (1993)). […]

[2] = target: T2, human neutrophil elastase (HNE) (Homo sapiens, UniProt P08246); test: Specificity assay, elastase (HNE); format: biochemical; settings: read-out: HLE activity in the specificity assays
T2 construct: purchased Sigma, EMDbiosciences
T2 sequence (P08246 30-247 limits assumed): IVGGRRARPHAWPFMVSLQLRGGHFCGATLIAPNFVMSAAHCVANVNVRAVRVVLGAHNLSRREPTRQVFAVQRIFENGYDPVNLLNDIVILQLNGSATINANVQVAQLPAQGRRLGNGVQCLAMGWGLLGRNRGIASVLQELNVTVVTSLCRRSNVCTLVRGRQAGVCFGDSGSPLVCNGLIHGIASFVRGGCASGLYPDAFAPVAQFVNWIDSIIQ
Protocol: The specificities of compounds of the present disclosure were determined against a variety of serine proteases: human neutrophil elastase (HNE), porcine pancreatic elastase (PPE) and human pancreatic chymotrypsin and one cysteine protease: human liver cathepsin B. In all cases a 96-well plate format protocol using a fluorometric Amino-Methyl-Coumarin (AMC) substrate specific for each enzyme was used as described previously (PCT Patent Application No. WO 00/09543) with some modifications to the serine protease assays. All enzymes were purchased from Sigma, EMDbiosciences while the substrates were from Bachem, Sigma and EMDbiosciences.
Compound concentrations varied from 100 to 0.4 μM depending on their potency. The enzyme assays were each initiated by addition of substrate to enzyme-inhibitor pre-incubated for 10 min at room temperature and hydrolysis to 15% conversion as measured on cytofluor.
50 mM Tris-HCl, pH 8.0, 50 mM NaCl, 0.1 mM EDTA, 3% DMSO, 0.02% Tween-20, 5 μM succ-AAPV-AMC and 20 nM HNE or 8 nM PPE;
The percentage of inhibition was calculated using the formula: [1−((UVinh−UVblank)/(UVctl−UVblank))]×100
A non-linear curve fit was applied to the inhibition-concentration data, and the 50% effective concentration (IC50) was calculated by the use of Excel XLfit software.

T1 sequence (O92972 1027-1711 C1454S/C1711G, one chain of several): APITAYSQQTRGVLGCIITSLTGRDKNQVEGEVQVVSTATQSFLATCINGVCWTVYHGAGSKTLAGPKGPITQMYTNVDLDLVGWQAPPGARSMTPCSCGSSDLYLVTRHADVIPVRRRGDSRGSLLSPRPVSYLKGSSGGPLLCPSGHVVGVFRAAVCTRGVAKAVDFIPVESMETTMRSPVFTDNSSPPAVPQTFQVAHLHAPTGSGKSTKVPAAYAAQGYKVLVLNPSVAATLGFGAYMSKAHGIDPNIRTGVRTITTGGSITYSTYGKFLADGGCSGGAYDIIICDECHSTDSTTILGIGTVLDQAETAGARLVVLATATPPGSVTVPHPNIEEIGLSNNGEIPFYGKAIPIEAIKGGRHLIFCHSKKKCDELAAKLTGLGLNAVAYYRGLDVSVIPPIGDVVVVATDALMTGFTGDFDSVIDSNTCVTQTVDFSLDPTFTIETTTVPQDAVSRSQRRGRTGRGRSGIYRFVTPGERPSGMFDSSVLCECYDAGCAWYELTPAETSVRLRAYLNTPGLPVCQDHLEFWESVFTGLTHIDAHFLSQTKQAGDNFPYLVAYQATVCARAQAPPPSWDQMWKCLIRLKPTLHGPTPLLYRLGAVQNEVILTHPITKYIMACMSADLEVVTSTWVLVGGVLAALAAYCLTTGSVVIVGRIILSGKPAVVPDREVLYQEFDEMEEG

## C=C[C@@H]1C[C@]1(NC(=O)[C@@H]1C[C@@H](Oc2ncc(OC)c3ccc(Cl)cc23)CN1C(=O)[C@@H](Nc1nc(-c2cccc(OC(F)(F)F)c2)cs1)C(C)(C)C)C(=O)NS(=O)(=O)C1CC1 [Example 68]
[1]
  IC50: 0.9 nM
[2]
  IC50: > 50000 nM
